From patent US20230148214A1, “INDAZOLES AND AZAINDAZOLES AS LRRK2 INHIBITORS” (ESCAPE Bio, Inc., priority 2020, published 2023) come the findings set out here.

Molecules are shown by their SMILES.

One assay deals with T1, LRRK2 WT (Homo sapiens, UniProt Q5S007).
T1 construct: purchased Life Technologies PR8604B
As to the kind of experiment: LRRK2 Kinase Activity Assay (LanthaScreen TR-FRET), wild type. The class given is biochemical. Particulars: recombinant wild type LRRK2, 25 μM ATP, 400 nM LRRKtide, 60 min; class symbols. The essentials:
(§1)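 Recombinant wild-type or G2019S LRRK2 incubated with fluorescein-labeled LRRKtide (ERM-based) peptide, ATP and serially diluted compound for 60 min at room temperature.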
For orientation: TR-FRET usually uses a lanthanide donor and a delayed reading to cut background.

In another assay the target is T2, LRRK2 G2019S (Homo sapiens, UniProt Q5S007, G2019S).
T2 construct: purchased Life Technologies PV4881
As to the kind of experiment: LRRK2 Kinase Activity Assay (LanthaScreen TR-FRET), G2019S. The class given is biochemical. Particulars: recombinant G2019S-LRRK2, 25 μM ATP, 400 nM LRRKtide, 60 min; class symbols. The essentials: as §1

T2 sequence (Q5S007 whole entry G2019S): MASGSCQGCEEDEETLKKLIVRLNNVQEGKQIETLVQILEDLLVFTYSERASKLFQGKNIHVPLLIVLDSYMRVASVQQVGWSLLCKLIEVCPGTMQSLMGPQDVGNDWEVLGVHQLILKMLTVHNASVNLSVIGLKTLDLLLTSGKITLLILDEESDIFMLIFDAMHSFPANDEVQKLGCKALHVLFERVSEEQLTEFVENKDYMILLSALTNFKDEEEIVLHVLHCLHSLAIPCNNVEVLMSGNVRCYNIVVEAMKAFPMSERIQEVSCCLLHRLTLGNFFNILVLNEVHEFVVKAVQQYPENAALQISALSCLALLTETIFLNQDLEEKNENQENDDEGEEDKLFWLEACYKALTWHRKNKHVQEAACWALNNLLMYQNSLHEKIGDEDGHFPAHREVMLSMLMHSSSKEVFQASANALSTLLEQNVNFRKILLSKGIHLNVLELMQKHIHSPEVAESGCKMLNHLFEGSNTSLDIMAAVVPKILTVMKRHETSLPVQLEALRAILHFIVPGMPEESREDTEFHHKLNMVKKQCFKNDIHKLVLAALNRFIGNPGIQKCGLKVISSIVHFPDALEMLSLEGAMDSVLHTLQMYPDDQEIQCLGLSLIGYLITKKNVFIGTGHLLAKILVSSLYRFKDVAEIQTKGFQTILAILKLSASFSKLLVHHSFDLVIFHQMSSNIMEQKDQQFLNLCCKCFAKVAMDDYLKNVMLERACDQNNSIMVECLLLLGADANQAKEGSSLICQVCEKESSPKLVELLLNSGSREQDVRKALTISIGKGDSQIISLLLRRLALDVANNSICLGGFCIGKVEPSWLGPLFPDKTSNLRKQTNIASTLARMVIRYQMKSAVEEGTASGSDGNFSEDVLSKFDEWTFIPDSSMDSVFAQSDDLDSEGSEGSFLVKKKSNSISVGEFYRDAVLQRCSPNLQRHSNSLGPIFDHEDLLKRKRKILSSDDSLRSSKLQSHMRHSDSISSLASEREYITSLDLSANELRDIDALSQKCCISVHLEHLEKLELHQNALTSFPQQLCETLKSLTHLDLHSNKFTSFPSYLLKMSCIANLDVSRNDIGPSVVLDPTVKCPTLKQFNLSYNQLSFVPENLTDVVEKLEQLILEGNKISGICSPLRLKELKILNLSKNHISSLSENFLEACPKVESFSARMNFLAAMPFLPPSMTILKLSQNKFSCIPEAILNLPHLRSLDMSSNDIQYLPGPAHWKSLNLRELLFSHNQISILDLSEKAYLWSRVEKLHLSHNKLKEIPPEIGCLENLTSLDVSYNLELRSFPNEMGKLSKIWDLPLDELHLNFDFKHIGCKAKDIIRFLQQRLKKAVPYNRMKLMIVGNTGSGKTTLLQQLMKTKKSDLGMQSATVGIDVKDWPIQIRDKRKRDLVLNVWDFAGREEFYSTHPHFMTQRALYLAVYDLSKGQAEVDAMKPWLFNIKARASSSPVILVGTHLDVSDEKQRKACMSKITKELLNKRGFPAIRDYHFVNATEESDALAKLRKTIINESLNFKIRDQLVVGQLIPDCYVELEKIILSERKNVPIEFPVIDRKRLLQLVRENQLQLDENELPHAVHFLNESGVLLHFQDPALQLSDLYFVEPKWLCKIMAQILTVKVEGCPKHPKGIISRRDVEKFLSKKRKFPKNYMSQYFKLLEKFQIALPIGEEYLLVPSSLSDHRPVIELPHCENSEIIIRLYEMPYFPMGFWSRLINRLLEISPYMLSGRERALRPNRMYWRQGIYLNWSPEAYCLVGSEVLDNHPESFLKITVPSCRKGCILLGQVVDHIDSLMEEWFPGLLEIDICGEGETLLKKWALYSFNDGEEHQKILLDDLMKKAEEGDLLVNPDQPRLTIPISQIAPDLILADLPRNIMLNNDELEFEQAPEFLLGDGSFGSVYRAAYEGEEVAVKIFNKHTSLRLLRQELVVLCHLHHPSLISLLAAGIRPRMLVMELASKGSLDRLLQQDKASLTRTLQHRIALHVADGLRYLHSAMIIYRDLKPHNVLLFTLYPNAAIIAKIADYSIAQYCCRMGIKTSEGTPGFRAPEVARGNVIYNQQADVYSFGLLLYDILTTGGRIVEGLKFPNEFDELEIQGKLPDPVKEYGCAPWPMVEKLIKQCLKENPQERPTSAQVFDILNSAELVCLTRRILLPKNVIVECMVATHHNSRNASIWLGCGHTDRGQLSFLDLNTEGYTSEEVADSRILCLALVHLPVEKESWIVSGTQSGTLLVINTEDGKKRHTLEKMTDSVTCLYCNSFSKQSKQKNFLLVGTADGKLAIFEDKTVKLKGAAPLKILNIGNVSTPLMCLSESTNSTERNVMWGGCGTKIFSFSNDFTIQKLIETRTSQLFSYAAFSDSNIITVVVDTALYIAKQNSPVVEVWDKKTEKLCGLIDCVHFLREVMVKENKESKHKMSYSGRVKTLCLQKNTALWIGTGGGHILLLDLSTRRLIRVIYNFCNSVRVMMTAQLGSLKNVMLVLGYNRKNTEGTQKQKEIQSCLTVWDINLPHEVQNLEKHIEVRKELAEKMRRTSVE
T1 sequence (Q5S007 whole entry): as the sequence (Q5S007 whole entry G2019S) above, with S2019G counted along it

The term IC50 denotes the midpoint of a concentration-inhibition curve. For the molecule `N#Cc1ccc2c(c1)CCC[C@H]2Nc1ccc2[nH]nc(-c3cnco3)c2c1` (single isomer, unassigned) [Example 119, enantiomer 1, 5-((3-(Oxazol-5-yl)-1H-indazol-5-yl)amino)-5,6,7,8-tetrahydronaphthalene-2-carbonitrile], the figures for the IC50 at LRRK2 WT and on LRRK2 G2019S were 100 to 1000 nM and under 100 nM, respectively.
For `N#Cc1cnc2c(c1)CCC[C@H]2Nc1ccc2[nH]nc(-c3cnco3)c2c1` (single isomer, unassigned) [Example 120, enantiomer 1, 8-((3-(Oxazol-5-yl)-1H-indazol-5-yl)amino)-5,6,7,8-tetrahydroquinoline-3-carbonitrile], in that order: under 100 nM and under 100 nM.
On the same counts, the results for `CCc1cc(-c2n[nH]c3ccc(O[C@@H]4CCCc5cc(C#N)cnc54)cc23)ccn1` (single isomer, unassigned) [Example 121, enantiomer 1, 8-((3-(2-Ethylpyridin-4-yl)-1H-indazol-5-yl)oxy)-5,6,7,8-tetrahydroquinoline-3-carbonitrile] are under 100 nM and under 100 nM.
On the same counts, the results for `N#Cc1cc2c(cn1)[C@H](Oc1ccc3[nH]nc(-c4cnco4)c3c1)CCC2` (single isomer, unassigned) [Example 122, enantiomer 1, 8-((3-(Oxazol-5-yl)-1H-indazol-5-yl)oxy)-5,6,7,8-tetrahydroisoquinoline-3-carbonitrile] are 100 to 1000 nM and under 100 nM.
On to `COc1cc(-c2n[nH]c3ccc(O[C@H]4CCCc5cc(C#N)cnc54)cc23)ccn1` (single isomer, unassigned) [Example 123, enantiomer 1, 8-((3-(2-Methoxypyridin-4-yl)-1H-indazol-5-yl)oxy)-5,6,7,8-tetrahydroquinoline-3-carbonitrile], for which the IC50 on LRRK2 WT and on LRRK2 G2019S was under 100 nM each time.
Regarding `N#Cc1ccc2c(c1)CC[C@@H]2Oc1ccc2[nH]nc(C3CC3)c2c1` (single isomer, unassigned) [Example 124, enantiomer 1, 1-((3-Cyclopropyl-1H-indazol-5-yl)oxy)-2,3-dihydro-1H-indene-5-carbonitrile], the half-maximal inhibitory concentration (IC50) on LRRK2 WT is 100 to 1000 nM; on LRRK2 G2019S, under 100 nM.
On the same counts, the results for `N#Cc1cnc2c(c1)CCC[C@@H]2Nc1ccc2[nH]nc(Br)c2c1` (single isomer, unassigned) [Example 125, enantiomer 1, 8-((3-Bromo-1H-indazol-5-yl)amino)-5,6,7,8-tetrahydroquinoline-3-carbonitrile] are 100 to 1000 nM and under 100 nM.
On the same counts, the results for `N#Cc1cnc2c(c1)CCC[C@@H]2Nc1ccc2[nH]nc(Br)c2c1` (single isomer, unassigned) [Example 125, enantiomer 2, 8-((3-Bromo-1H-indazol-5-yl)amino)-5,6,7,8-tetrahydroquinoline-3-carbonitrile] are 1000 to 10000 nM and 100 to 1000 nM.
Consider `N#Cc1cnc2c(c1)CCC[C@@H]2Nc1ccc2[nH]nc(Cl)c2c1` (single isomer, unassigned) [Example 126, enantiomer 1, 8-((3-Chloro-1H-indazol-5-yl)amino)-5,6,7,8-tetrahydroquinoline-3-carbonitrile], for which the half-maximal inhibitory concentration (IC50) at LRRK2 WT and on LRRK2 G2019S was 1000 to 10000 nM each time.
Consider `N#Cc1cnc2c(c1)CCC[C@@H]2Nc1ccc2[nH]nc(Cl)c2c1` (single isomer, unassigned) [Example 126, enantiomer 2, 8-((3-Chloro-1H-indazol-5-yl)amino)-5,6,7,8-tetrahydroquinoline-3-carbonitrile], for which the values for the concentration for half-maximal inhibition (IC50) at LRRK2 WT and on LRRK2 G2019S were 100 to 1000 nM and under 100 nM, respectively.
On the same counts, the results for `Cc1c(C#N)ccc2c1CC[C@@H]2Nc1ccc2[nH]nc(I)c2c1` (single isomer, unassigned) [Example 127, enantiomer 1, 1-((3-Iodo-1H-indazol-5-yl)amino)-4-methyl-2,3-dihydro-1H-indene-5-carbonitrile] are 100 to 1000 nM and 100 to 1000 nM.
For `N#Cc1ccc2c(c1)CC[C@H]2Nc1ccc2[nH]nc(I)c2c1` (single isomer, unassigned) [Example 128, enantiomer 1, 1-((3-Iodo-1H-indazol-5-yl)amino)-2,3-dihydro-1H-indene-5-carbonitrile], the IC50 on LRRK2 WT and on LRRK2 G2019S was 100 to 1000 nM each time.
For `N#Cc1ccc2c(c1)CC[C@H]2Nc1ccc2[nH]nc(I)c2c1` (single isomer, unassigned) [Example 128, enantiomer 2, 1-((3-Iodo-1H-indazol-5-yl)amino)-2,3-dihydro-1H-indene-5-carbonitrile], the figures for the half-maximal inhibitory concentration (IC50) on LRRK2 WT and on LRRK2 G2019S were 100 to 1000 nM and under 100 nM, respectively.
For `Cc1n[nH]c2ccc(N[C@H]3CCc4c(C#N)cccc43)cc12` (single isomer, unassigned) [Example 129, enantiomer 1, 1-((3-Methyl-1H-indazol-5-yl)amino)-2,3-dihydro-1H-indene-4-carbonitrile], in that order: 1000 to 10000 nM and 100 to 1000 nM.
On the same counts, the results for `Cc1n[nH]c2ccc(N[C@H]3CCc4ccc(C#N)cc43)cc12` (single isomer, unassigned) [Example 130, enantiomer 1, 3-((3-Methyl-1H-indazol-5-yl)amino)-2,3-dihydro-1H-indene-5-carbonitrile] are 1000 to 10000 nM and 100 to 1000 nM.
On the same counts, the results for `Cc1n[nH]c2ccc(N[C@H]3CCc4ccc(C#N)cc43)cc12` (single isomer, unassigned) [Example 130, enantiomer 2, 3-((3-Methyl-1H-indazol-5-yl)amino)-2,3-dihydro-1H-indene-5-carbonitrile] are 100 to 1000 nM and under 100 nM.
Turning to `Cc1cc(C#N)cc2c1[C@@H](Nc1ccc3[nH]nc(-c4cnco4)c3c1)CC2` (single isomer, unassigned) [Example 131, enantiomer 1, 7-Methyl-1-((3-(oxazol-5-yl)-1H-indazol-5-yl)amino)-2,3-dihydro-1H-indene-5-carbonitrile], the IC50 at LRRK2 WT and on LRRK2 G2019S was under 100 nM throughout.
With `N#Cc1cc(F)c2c(c1)CC[C@H]2Nc1ccc2[nH]nc(-c3cnco3)c2c1` (single isomer, unassigned) [Example 132, enantiomer 1, 5-((5-Cyano-7-fluoro-2,3-dihydro-1H-inden-1-yl)amino)-3-(oxazol-5-yl)-1H-indazol-2-ium], the IC50 on LRRK2 WT and at LRRK2 G2019S was under 100 nM throughout.
With `N#Cc1ccc2c(n1)CCC[C@H]2Oc1ccc2[nH]nc(C3CC3)c2c1` (single isomer, unassigned) [Example 133, enantiomer 1, 5-((3-Cyclopropyl-1H-indazol-5-yl)oxy)-5,6,7,8-tetrahydroquinoline-2-carbonitrile], the half-inhibitory concentration (IC50) at LRRK2 WT lay within 1000 to 10000 nM; on LRRK2 G2019S it was 100 to 1000 nM.
With `N#Cc1ccc2c(n1)CCC[C@H]2Oc1ccc2[nH]nc(C3CC3)c2c1` (single isomer, unassigned) [Example 133, enantiomer 2, 5-((3-Cyclopropyl-1H-indazol-5-yl)oxy)-5,6,7,8-tetrahydroquinoline-2-carbonitrile], the figures for the IC50 at LRRK2 WT and at LRRK2 G2019S were 1000 to 10000 nM and under 100 nM, respectively.
On the same counts, the results for `N#Cc1ccc2c(c1)CC[C@@H]2Nc1ccc2[nH]nc(C3CC3)c2c1` (single isomer, unassigned) [Example 134, enantiomer 1, 1-((3-Cyclopropyl-1H-indazol-5-yl)amino)-2,3-dihydro-1H-indene-5-carbonitrile] are 1000 to 10000 nM and 100 to 1000 nM.
For `N#Cc1ccc2c(c1)CC[C@@H]2Nc1ccc2[nH]nc(C3CC3)c2c1` (single isomer, unassigned) [Example 134, enantiomer 2, 1-((3-Cyclopropyl-1H-indazol-5-yl)amino)-2,3-dihydro-1H-indene-5-carbonitrile], in that order: 1000 to 10000 nM and 100 to 1000 nM.
Consider `N#Cc1ccc2c(n1)CCC[C@@H]2Oc1ccc2[nH]nc(I)c2c1` (single isomer, unassigned) [Example 135, enantiomer 1, 5-((3-Iodo-1H-indazol-5-yl)oxy)-5,6,7,8-tetrahydroquinoline-2-carbonitrile], for which the half-inhibitory concentration (IC50) on LRRK2 WT was 100 to 1000 nM; on LRRK2 G2019S it was under 100 nM.
For `N#Cc1ccc2c(n1)CCC[C@@H]2Oc1ccc2[nH]nc(I)c2c1` (single isomer, unassigned) [Example 135, enantiomer 2, 5-((3-Iodo-1H-indazol-5-yl)oxy)-5,6,7,8-tetrahydroquinoline-2-carbonitrile], in that order: 100 to 1000 nM and under 100 nM.
On the same counts, the results for `N#Cc1cnc2c(c1)CCC[C@@H]2Oc1ccc2[nH]nc(C3CC3)c2c1` (single isomer, unassigned) [Example 136, enantiomer 1, 8-((3-Cyclopropyl-1H-indazol-5-yl)oxy)-5,6,7,8-tetrahydroquinoline-3-carbonitrile] are 100 to 1000 nM and under 100 nM.
On the same counts, the results for `N#Cc1cnc2c(c1)CCC[C@@H]2Oc1ccc2[nH]nc(I)c2c1` (single isomer, unassigned) [Example 137, enantiomer 1, 8-((3-Iodo-1H-indazol-5-yl)oxy)-5,6,7,8-tetrahydroquinoline-3-carbonitrile] are under 100 nM and under 100 nM.
`N#Cc1cnc2c(c1)CCC[C@@H]2Oc1ccc2[nH]nc(I)c2c1` (single isomer, unassigned) [Example 137, enantiomer 2, 8-((3-Iodo-1H-indazol-5-yl)oxy)-5,6,7,8-tetrahydroquinoline-3-carbonitrile]: the IC50 at LRRK2 WT was 100 to 1000 nM; on LRRK2 G2019S it was under 100 nM.
As to `N#Cc1ccc2c(c1)C(F)(F)C[C@@H]2Nc1ccc2[nH]nc(-c3cnco3)c2c1` (single isomer, unassigned) [Example 138, enantiomer 1, 3,3-Difluoro-1-((3-(oxazol-5-yl)-1H-indazol-5-yl)amino)-2,3-dihydro-1H-indene-5-carbonitrile], the IC50 on LRRK2 WT and at LRRK2 G2019S was under 100 nM each time.
